Patent publication USRE47141E1, “Methods of treating fibrosis, cancer and vascular injuries” (EWHA University—Industry Collaboration Foundation, priority 2010, dated 2018)

Key:
[1] = target: ALK4 (Homo sapiens (Human), UniProt P36896); test: Cell-free assay for inhibition of ALK4 kinase phosphorylation; format: biochemical
Description: ALK5 protein was expressed in Sf9 insect cells as human recombinant GST-fusion protein using the baculovirus expression system. Expressed protein was purified by affinity chromatography using GSH-agarose (Sigma-Aldrich). Kinase assay was performed in 96-well FlashPlates™ from Perkin Elmer (Boston, Mass., USA) in a 50 μL reaction volume. The reaction cocktail was pipetted in four steps in the following order: 20 μL of assay buffer (standard buffer), 5 μL of ATP solution in H2O, 5 μL of each test compounds of formula (I) in 10% DMSO, 10 μL of GSK3 (14-27) (200 ng)/10 μL of ALK5 solution (1 ng) (premixed). The reaction cocktail contained 60 mM HEPES-NaOH, pH 7.5, 3 mM MgCl2, 3 mM MnCl2, […], 1.2 mM DTT, 50 μg/mL PEG20000, 1 μM [γ-^33P]-ATP (approximately 2.5×10^5 cpm per well), 200 ng/10 μL GSK3 (14-27), and 1 ng/10 μL ALK5. The reaction cocktail was incubated at 30° C. for 60 min. […] Incorporation of ^33Pi (counting of “cpm”) was determined with a microplate scintillation counter (Microbeta, Wallac).
Inhibition of the ALK4 kinase phosphorylation by test compounds of formula (I) can be determined in a similar manner to that described above for ALK5 inhibition except that GST-tagged ALK4 (Invitrogen Corporation) and RBER-CHKtide are used in place of the GST-tagged ALK5 and GSK3 (14-27).

[2] = target: AKT1 (Homo sapiens (Human), UniProt P31749); test: Kinase selectivity profiling; format: biochemical
Description: (§1) Kinase assays were performed in 96-well FlashPlates™ from Perkin Elmer in a […]. […] The reaction cocktail contained 70 mM HEPES-NaOH, pH 7.5, 3 mM MnCl2, 3 μM Na3VO4, 1.2 mM DTT, 1 μM [γ-^33P]-ATP (approximately 6×10^5 cpm per well), protein kinase (variable amounts), and substrate (variable amounts). The reaction cocktails were incubated at 30° C. for 60 min. The reaction was stopped with 50 μL of 2% (v/v) H3PO4, and plates were aspirated and washed two times with 200 μL 0.9% (w/v) NaCl. ALL assays were performed with a BeckmanCoulter Biomek 2000/SL robotic system. Incorporation of ^33Pi (counting of “cpm”) was determined with a microplate scintillation counter.

[3] = target: ALK1 (Homo sapiens (Human), UniProt P37023); test: Kinase selectivity profiling; format: biochemical
Description: as §1

[4] = target: ALK2 (Homo sapiens (Human), UniProt Q04771); test: Kinase selectivity profiling; format: biochemical
Description: as §1

[5] = target: ALK3 (Homo sapiens (Human), UniProt P36894); test: Kinase selectivity profiling; format: biochemical
Description: as §1

[6] = target: CDK1/CycA (Homo sapiens (Human), UniProt P06493); test: Kinase selectivity profiling; format: biochemical
Description: as §1

[7] = target: ERK1 (Homo sapiens (Human), UniProt P27361); test: Kinase selectivity profiling; format: biochemical
Description: as §1

[8] = target: GSK3α (Homo sapiens (Human), UniProt P49840); test: Kinase selectivity profiling; format: biochemical
Description: as §1

[9] = target: MEK1 wt (Homo sapiens (Human), UniProt Q02750); test: Kinase selectivity profiling; format: biochemical
Description: as §1

[10] = target: MST1 (Homo sapiens (Human), UniProt Q13043); test: Kinase selectivity profiling; format: biochemical
Description: as §1

[11] = target: PAK1 (Homo sapiens (Human), UniProt Q13153); test: Kinase selectivity profiling; format: biochemical
Description: as §1

[12] = target: PDGFRβ (Homo sapiens (Human), UniProt P09619); test: Kinase selectivity profiling; format: biochemical
Description: as §1

[13] = target: PKA (Homo sapiens (Human), UniProt P17612); test: Kinase selectivity profiling; format: biochemical
Description: as §1

[14] = target: ROCK1 (Homo sapiens (Human), UniProt Q13464); test: Kinase selectivity profiling; format: biochemical
Description: as §1

[15] = target: STK23 (Homo sapiens (Human), UniProt Q9UPE1); test: Kinase selectivity profiling; format: biochemical
Description: as §1

[16] = target: VEGF-R3 (Homo sapiens (Human), UniProt P35916); test: Kinase selectivity profiling; format: biochemical
Description: as §1

[17] = test system: TGF-β1-induced Smad2/3 nuclear translocation in MCF10A cells; test: Immunofluorescence assay; format: cell-based; conditions: TGF-β1 2 ng/mL, 1 μM, 2 h
Description: MCF10A cells were plated on the cover glass in 6-well plate at 2×10^5 cells/well. After 12 h, when cells were attached, 10% FBS medium was changed to 0.5% FBS medium. […] Then, cells were fixed with 4% formaldehyde solution for 30 min at room temperature and quenched with quenching solution (50 mM NH4Cl in PBS) for 15 min. After being washed three times with PBS, cells were incubated with blocking/permeabilization solution (1% BSA and 0.1% Triton X-100 in PBS) for 1 h at room temperature and incubated with anti-Smad2/3 antibody (BD Biosciences, Franklin Lakes, N.J., USA) overnight at 4° C. Fluorescence was visualized by Cy3-conjugated goat anti-mouse IgG (Jackson ImmunoResearch Laboratories, Bar Harbor, Me., USA). Nuclei of the same cells were stained with DAPI solution. Cells were analyzed using the LSM 510 META laser confocal microscopy system (Carl Zeiss, Germany).

[18] = test system: MCF10A cells; test: Cell growth study (SRB assay), MCF10A; format: cell-based; conditions: 0.2% serum medium, four days
Description: Either 4T1 cells or MCF10A cells were seeded in 96-well plate at 5×10^3 cells per well. […] After incubation for four days, cell viability was determined by SRB assay.

[19] = read-out: % inhibition at 1 μM, 1 μM
[20] = read-out: % inhibition at 10 μM, 10 μM

ROCK1, sequence (Q13464 whole entry, species assumed): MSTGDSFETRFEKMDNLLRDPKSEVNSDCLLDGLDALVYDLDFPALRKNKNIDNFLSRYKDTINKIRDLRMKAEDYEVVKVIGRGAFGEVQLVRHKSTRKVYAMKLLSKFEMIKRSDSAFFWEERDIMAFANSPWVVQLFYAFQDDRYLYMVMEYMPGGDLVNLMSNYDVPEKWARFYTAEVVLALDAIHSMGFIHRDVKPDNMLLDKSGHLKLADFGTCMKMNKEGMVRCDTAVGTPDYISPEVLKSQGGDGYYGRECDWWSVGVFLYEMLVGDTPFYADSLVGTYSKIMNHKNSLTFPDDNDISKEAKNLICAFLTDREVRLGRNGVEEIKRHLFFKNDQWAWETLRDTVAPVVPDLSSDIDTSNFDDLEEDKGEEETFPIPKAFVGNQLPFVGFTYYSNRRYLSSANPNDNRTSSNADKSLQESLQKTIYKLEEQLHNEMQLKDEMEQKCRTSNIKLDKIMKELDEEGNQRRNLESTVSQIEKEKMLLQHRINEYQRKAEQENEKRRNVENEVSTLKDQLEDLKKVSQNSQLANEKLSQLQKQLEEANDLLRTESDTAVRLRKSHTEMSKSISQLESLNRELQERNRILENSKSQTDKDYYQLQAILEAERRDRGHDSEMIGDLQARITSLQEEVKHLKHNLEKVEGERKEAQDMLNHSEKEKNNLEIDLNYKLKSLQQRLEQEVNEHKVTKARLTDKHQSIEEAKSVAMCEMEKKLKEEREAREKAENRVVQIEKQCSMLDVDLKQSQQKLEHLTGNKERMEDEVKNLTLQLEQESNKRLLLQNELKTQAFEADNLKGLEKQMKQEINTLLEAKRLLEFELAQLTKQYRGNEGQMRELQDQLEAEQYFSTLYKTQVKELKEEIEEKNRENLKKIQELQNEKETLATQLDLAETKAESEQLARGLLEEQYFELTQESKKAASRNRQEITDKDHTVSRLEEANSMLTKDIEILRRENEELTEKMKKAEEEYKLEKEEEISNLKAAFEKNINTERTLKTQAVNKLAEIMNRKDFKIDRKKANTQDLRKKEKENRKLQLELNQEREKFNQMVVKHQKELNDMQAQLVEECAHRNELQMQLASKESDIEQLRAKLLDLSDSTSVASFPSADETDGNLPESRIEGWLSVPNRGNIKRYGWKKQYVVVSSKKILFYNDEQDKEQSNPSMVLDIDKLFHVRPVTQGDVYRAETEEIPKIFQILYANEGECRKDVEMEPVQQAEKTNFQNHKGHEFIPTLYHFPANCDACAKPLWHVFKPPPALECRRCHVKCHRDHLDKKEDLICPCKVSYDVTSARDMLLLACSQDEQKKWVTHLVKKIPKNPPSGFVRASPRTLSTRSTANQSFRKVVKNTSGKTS
MST1, sequence (Q13043 whole entry): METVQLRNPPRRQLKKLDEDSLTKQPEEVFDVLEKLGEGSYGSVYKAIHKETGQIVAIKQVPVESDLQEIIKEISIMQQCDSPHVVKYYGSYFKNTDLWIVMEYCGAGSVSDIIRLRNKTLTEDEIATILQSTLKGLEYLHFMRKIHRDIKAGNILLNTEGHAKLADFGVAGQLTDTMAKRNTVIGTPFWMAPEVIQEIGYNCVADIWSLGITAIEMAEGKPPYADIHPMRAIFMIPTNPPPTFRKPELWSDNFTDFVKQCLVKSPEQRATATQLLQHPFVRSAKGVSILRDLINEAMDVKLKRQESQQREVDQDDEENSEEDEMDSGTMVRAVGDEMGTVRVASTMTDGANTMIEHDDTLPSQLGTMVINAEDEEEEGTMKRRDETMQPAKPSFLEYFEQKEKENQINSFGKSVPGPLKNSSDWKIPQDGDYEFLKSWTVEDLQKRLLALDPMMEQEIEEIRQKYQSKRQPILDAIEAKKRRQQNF
PAK1, sequence (Q13153 whole entry): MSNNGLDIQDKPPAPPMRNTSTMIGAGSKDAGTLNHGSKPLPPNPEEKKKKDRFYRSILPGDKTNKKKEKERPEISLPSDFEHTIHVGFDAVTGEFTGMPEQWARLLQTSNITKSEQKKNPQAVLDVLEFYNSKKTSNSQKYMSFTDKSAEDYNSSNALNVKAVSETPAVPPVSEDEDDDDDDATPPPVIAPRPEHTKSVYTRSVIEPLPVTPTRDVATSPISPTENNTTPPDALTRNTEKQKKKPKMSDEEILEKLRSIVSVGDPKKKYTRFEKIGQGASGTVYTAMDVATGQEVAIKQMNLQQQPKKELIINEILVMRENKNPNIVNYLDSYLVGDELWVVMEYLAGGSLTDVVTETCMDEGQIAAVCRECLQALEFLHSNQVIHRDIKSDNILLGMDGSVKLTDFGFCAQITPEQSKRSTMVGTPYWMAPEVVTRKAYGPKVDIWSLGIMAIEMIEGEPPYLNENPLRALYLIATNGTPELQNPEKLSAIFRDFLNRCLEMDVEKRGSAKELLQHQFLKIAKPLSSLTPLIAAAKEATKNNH
ERK1, sequence (P27361 whole entry, species assumed): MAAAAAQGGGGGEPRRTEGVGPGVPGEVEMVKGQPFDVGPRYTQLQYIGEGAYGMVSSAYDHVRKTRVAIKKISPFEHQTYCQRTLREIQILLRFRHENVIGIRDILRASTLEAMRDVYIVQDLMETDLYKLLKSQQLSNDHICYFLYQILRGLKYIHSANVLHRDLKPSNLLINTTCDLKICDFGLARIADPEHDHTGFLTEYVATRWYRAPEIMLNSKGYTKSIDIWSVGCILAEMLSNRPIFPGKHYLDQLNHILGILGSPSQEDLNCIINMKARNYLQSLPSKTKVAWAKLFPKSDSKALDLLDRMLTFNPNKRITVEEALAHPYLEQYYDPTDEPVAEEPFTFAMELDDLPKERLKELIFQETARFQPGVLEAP
STK23, sequence (Q9UPE1 whole entry, species assumed): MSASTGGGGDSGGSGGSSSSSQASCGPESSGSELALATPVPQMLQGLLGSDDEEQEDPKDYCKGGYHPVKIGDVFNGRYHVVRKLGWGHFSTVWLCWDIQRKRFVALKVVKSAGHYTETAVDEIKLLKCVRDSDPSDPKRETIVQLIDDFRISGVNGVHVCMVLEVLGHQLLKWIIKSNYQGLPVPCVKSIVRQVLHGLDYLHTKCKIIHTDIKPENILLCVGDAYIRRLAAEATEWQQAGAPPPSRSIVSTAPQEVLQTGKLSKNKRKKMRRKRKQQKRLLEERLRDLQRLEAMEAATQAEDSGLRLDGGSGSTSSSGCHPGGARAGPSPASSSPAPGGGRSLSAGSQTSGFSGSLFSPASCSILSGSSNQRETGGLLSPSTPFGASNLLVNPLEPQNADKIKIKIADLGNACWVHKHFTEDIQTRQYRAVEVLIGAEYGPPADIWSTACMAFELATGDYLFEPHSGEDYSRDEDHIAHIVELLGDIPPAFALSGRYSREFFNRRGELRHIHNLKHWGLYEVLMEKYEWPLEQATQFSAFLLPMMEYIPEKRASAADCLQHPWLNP
GSK3α, sequence (P49840 whole entry, species assumed): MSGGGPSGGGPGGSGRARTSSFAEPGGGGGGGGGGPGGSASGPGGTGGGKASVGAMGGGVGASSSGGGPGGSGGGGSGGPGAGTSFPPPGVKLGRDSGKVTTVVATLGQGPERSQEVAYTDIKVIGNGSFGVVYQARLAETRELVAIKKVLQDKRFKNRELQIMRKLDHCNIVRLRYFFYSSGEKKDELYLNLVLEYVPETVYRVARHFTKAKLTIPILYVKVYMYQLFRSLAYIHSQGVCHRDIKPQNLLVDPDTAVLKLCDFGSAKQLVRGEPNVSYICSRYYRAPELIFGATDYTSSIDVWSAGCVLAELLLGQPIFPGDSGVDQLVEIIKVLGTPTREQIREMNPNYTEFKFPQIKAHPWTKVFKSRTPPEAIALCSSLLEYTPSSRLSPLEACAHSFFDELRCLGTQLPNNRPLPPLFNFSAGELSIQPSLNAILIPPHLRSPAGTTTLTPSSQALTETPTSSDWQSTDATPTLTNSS
ALK3, sequence (P36894 24-532, species assumed): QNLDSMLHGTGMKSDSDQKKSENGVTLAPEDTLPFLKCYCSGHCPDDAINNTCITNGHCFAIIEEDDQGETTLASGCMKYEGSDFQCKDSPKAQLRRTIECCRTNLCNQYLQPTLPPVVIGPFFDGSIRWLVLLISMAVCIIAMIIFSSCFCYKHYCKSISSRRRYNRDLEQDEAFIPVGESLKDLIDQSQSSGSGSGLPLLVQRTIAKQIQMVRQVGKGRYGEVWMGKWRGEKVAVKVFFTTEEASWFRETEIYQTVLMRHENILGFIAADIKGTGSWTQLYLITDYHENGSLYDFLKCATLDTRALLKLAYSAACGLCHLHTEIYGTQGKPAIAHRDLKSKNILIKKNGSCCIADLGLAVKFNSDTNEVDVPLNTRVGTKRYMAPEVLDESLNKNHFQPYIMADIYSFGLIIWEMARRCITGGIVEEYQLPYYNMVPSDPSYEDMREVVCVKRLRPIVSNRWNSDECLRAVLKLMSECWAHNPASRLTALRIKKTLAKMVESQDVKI
MEK1 wt, sequence (Q02750 whole entry): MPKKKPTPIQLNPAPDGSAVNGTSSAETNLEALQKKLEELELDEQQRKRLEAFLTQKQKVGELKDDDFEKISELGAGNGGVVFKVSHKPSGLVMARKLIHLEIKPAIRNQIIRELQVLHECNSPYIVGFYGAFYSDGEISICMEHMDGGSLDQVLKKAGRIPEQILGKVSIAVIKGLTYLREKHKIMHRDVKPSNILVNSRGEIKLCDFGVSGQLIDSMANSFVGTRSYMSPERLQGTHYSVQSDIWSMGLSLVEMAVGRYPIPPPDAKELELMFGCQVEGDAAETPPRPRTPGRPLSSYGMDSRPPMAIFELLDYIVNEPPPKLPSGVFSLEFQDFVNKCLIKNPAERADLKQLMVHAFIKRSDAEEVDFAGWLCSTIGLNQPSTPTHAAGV

Cc1cccc(-c2[nH]c(CNc3ccccc3F)nc2-c2ccc3ncnn3c2)n1 [Example 2, N-((4-([1,2,4]triazolo[1,5-a]pyridin-6-yl)-5-(6-methylpyridin-2-yl)-1H-imidazol-2-yl)methyl)-2-fluoroaniline] showed an IC50 [1] of 17.3 nM, an inhibition at 1 µM [2, 19] of 0% and an inhibition at 10 µM [2, 20] of 3%. The inhibition at 1 µM [3, 19] was 20%, the inhibition at 10 µM [3, 20] was 66% and the inhibition at 1 µM [4, 19] was 17%. The inhibition at 10 µM [4, 20] was 71%, the inhibition at 1 µM [5, 19] was -6% and the inhibition at 10 µM [5, 20] was 27%. For the same molecule, the inhibition at 1 µM [6, 19] was 5%, the inhibition at 10 µM [6, 20] was 2% and the inhibition at 1 µM [7, 19] was 17%. It also gave an inhibition at 10 µM [7, 20] of 66%, an inhibition at 1 µM [8, 19] of 10% and an inhibition at 10 µM [8, 20] of 15%. It also gave an inhibition at 1 µM [9, 19] of 14%, an inhibition at 10 µM [9, 20] of 47% and an inhibition at 1 µM [10, 19] of -7%. It also gave an inhibition at 10 µM [10, 20] of 3%, an inhibition at 1 µM [11, 19] of -7% and an inhibition at 10 µM [11, 20] of -3%. The inhibition at 1 µM [12, 19] was 47%, the inhibition at 10 µM [12, 20] was 87% and the inhibition at 1 µM [13, 19] was -7%. It also gave an inhibition at 10 µM [13, 20] of 18%, an inhibition at 1 µM [14, 19] of 3% and an inhibition at 10 µM [14, 20] of 9%. It also gave an inhibition at 1 µM [15, 19] of -4%, an inhibition at 10 µM [15, 20] of -1% and an IC50 [16] of 257 nM. The “TGF-β1-induced Smad2/3 nuclear translocation” value [17] was “suppressed” and the MCF10A cell growth [18] was “slightly increased”.
